Experimental data as given in article PMC10681007, “Targeted Degradation of XIAP is Sufficient and Specific to Induce Apoptosis in MYCN-overexpressing High-risk Neuroblastoma” (Cancer Research Communications, 2023).
pIC50: −log10 of the molar value. Starred links: 1 amine or outer side, 2 acyl side, 3 side chain; linkers in the order of their positions; H or OH if unused. Positions of bridges follow the written chain, without caps; N, C: chain ends. Non-standard residues stand in square brackets, D forms with d. Residues, ends and D or L forms follow the SMILES beside them. Chains are numbered I, II in the order given. Hexamethylenediamine = C(CCCN[*:2])CCN[*:1]; Dip = N[C@H](C(=O)O)C(c1ccccc1)c1ccccc1; Chg = N[C@H](C(=O)O)C1CCCCC1; NMeA = CN[C@@H](C)C(=O)O

How the values were obtained:
Type in all cases: cell-based, Human
[1] = tested on: BE(2)-C; assay: RealTime-Glo MT cell viability assay
Protocol: (§1) Cell viability was measured in real time using RealTime-Glo MT Cell Viability Assay as according to manufacturer's instructions from Promega. Cells were seeded at 1 × 10^4 cells per well and treated with a range of doses of indicated antagonists, followed by continuous bioluminescence reading every 24 hours for 3 days using luminescent plate reader, Varioskan (SkanIT software). IC50 was determined using GraphPad Prism software.
(§2) To determine their efficacy in neuroblastoma, a panel of neuroblastoma cell lines including neuroblastoma patient-derived cell lines and noncancerous normal tissue-derived cell lines were treated with increasing doses of each antagonist (0–100 µmol/L), followed by real-time measurement of cell viability every 24 for 72 hours.

[2] = tested on: CHP212; assay: RealTime-Glo MT cell viability assay
Protocol: as §1, §2

[3] = tested on: IMR-32; assay: RealTime-Glo MT cell viability assay
Protocol: as §1, §2

[4] = tested on: KELLY; assay: RealTime-Glo MT cell viability assay
Protocol: as §1, §2

[5] = tested on: NB1; assay: RealTime-Glo MT cell viability assay
Protocol: as §1, §2

[6] = tested on: NBL-07-0317 patient-derived neuroblastoma cells; assay: RealTime-Glo MT cell viability assay
Protocol: as §1, §2

[7] = tested on: NBL01-1116 patient-derived neuroblastoma cells; assay: RealTime-Glo MT cell viability assay
Protocol: as §1, §2

[8] = tested on: NBL16-0118 patient-derived neuroblastoma cells; assay: RealTime-Glo MT cell viability assay
Protocol: as §1, §2

[9] = tested on: NBL27-0218A patient-derived neuroblastoma cells; assay: RealTime-Glo MT cell viability assay
Protocol: as §1, §2

[10] = tested on: NLF; assay: RealTime-Glo MT cell viability assay
Protocol: as §1, §2

[11] = tested on: SK-N-AS; assay: RealTime-Glo MT cell viability assay
Protocol: as §1, §2

[12] = tested on: SK-N-SH; assay: RealTime-Glo MT cell viability assay
Protocol: as §1, §2

[13] = tested on: THLE3 (liver origin); assay: RealTime-Glo MT cell viability assay, noncancerous normal cells
Protocol: as §1, §2
To evaluate this, noncancerous normal tissue-derived cell lines THLE3 and HS5 were utilized to evaluate toxicity and tolerability.

[14] = tested on: neuroblastoma cells across the panel of cell lines; assay: Cell viability, IC50 range across the panel; details: range over cell lines, doses 0–100 µmol/L, viability every 24 for 72 hours; read-out: IC50 against neuroblastoma cells across the panel of cell lines
Protocol: as §1, with “([…]” for “(SkanIT”, “software. To determine their efficacy in neuroblastoma, a panel of neuroblastoma cell lines including neuroblastoma patient-derived cell lines and noncancerous normal tissue-derived cell lines were treated with increasing doses of each antagonist (0-100 μmol/L), followed by real-time measurement of cell viability every 24 for 72 hours. […] Supplementary Table S2; Fig. 2A). […] Fig. 2A).” for “software.”

[15] = tested on: XIAP and c-IAP1; assay: Immunoblot analysis of XIAP and c-IAP1 expression; details: 10 µmol/L
Text: FIGURE 2 Specific loss of XIAP expression, not c-IAP1, is required for mediating apoptosis in high-risk neuroblastoma cells. A, Summary of IAP antagonists’ efficacy in killing neuroblastoma cells. The IAP antagonists were ranked on the basis of the average potency of killing (IC50) and specificity of killing toward only neuroblastoma cells: (i) A4, (ii) B3, (iii) BV6, (iv) LCL161, (v) CUDC-427, (vi) Debio 1143. B, Immunoblot analysis of c-IAP1, XIAP, PARP, and cleaved caspase-3 expression in neuroblastoma cell lines, BE(2)-C and KELLY, and noncancerous normal tissue cell line, HS5, after treatment with 10 µmol/L of either A4, B3, or BV6 at indicated timings (three independent replicates). C, Graphical representation showing the fold change of caspase-3/7 activity relative to vehicle controls after treatment with 10 µmol/L of either A4, B3, or BV6 at indicated timings (data were expressed as mean ± SD of three independent experiments conducted in duplicates; *, P < 0.05). D, Morphology of cells 48 hours posttreatment with 10 µmol/L of either A4, B3, or BV6. […]
Whole cell lysates harvested were lysed in EBC buffer (pH 8.0 of 50 mM Tris, 0.5% NP-40, 120 mM sodium chloride) containing protease inhibitors and protein concentration were quantified using the Bradford assay (Thermo Fisher Scientific). […]

For `CN[C@@H](C)C(=O)N[C@H](C(=O)N1CCC[C@H]1C(=O)N[C@H](C(=O)NCCCCCCNC(=O)[C@@H](NC(=O)[C@@H]1CCCN1C(=O)[C@@H](NC(=O)[C@H](C)NC)C1CCCCC1)C(c1ccccc1)c1ccccc1)C(c1ccccc1)c1ccccc1)C1CCCCC1` [BV6] (I: H-[NMeA][Chg]P[Dip] / II: H-[NMeA][Chg]P[Dip]; linker I:C-II:C via Hexamethylenediamine), the pIC50 ([1]; 24 hours) was 4.67, the pIC50 ([1]; 48 hours) was 4.77 and the pIC50 ([1]; 72 hours) was 4.78. The pIC50 ([2]; CHP212, 24 hours) was 4.98, the pIC50 ([2]; CHP212, 48 hours) was 5.00 and the pIC50 ([2]; CHP212, 72 hours) was 5.03. It also gave a pIC50 ([3]; IMR-32, 24 hours) of 5.13, a pIC50 ([3]; IMR-32, 48 hours) of 5.24 and a pIC50 ([3]; IMR-32, 72 hours) of 5.37. It also gave a pIC50 ([4]; 24 hours) of 4.87, a pIC50 ([4]; 48 hours) of 4.89 and a pIC50 ([4]; 72 hours) of 5.00. The pIC50 ([5]; NB1, 24 hours) was 5.15, the pIC50 ([5]; NB1, 48 hours) was 5.26 and the pIC50 ([5]; NB1, 72 hours) was 5.42. For the same compound, the pIC50 ([6]; NBL-07-0317, 24 hours) was 5.09, the pIC50 ([6]; NBL-07-0317, 48 hours) was 5.26 and the pIC50 ([6]; NBL-07-0317, 72 hours) was 5.32. For the same compound, the pIC50 ([7]; NBL01-1116, 24 hours) was 4.84, the pIC50 ([7]; NBL01-1116, 48 hours) was 5.03 and the pIC50 ([7]; NBL01-1116, 72 hours) was 5.07. For the same compound, the pIC50 ([8]; NBL16-0118, 24 hours) was 5.29, the pIC50 ([8]; NBL16-0118, 48 hours) was 5.55 and the pIC50 ([8]; NBL16-0118, 72 hours) was 5.64. For the same compound, the pIC50 ([9]; 24 hours) was 5.23, the pIC50 ([9]; 48 hours) was 5.44 and the pIC50 ([9]; 72 hours) was 5.59. It also gave a pIC50 ([10]; 24 hours) of 5.13, a pIC50 ([10]; 48 hours) of 5.42 and a pIC50 ([10]; 72 hours) of 5.43. It also gave a pIC50 ([11]; 24 hours) of 5.34, a pIC50 ([11]; 48 hours) of 5.49 and a pIC50 ([11]; 72 hours) of 5.59. For the same compound, the pIC50 ([12]; 24 hours) was 4.91, the pIC50 ([12]; 48 hours) was 4.98 and the pIC50 ([12]; 72 hours) was 5.01. For the same compound, the pIC50 ([13]; THLE3, 24 hours) was 4.95, the pIC50 ([13]; THLE3, 48 hours) was 5.17 and the pIC50 ([13]; THLE3, 72 hours) was 5.28. For the same compound, the pIC50 [14] was 4.70 to 5.52, the “XIAP and c-IAP1 expression (immunoblot)” value ([15]; BE(2)-C and KELLY cells) was “loss of c-IAP1 expression with no change in XIAP expression” and the “XIAP and c-IAP1 expression (immunoblot)” value ([15]; HS5 cells) was “loss of c-IAP1 expression with no changes in XIAP expression”.
